# Data: patent publication US7850970B2, “Inhibitors of serine protease activity and their use in methods and compositions for treatment of bacterial infections” (priority 2003, dated 2010)
# “And” between values parts separate entries of the source, which are not always exact repeats. Equal values may be shown once. Residues, ends and D or L forms follow the SMILES beside them. *: point of attachment. CH2Cl = ClC*
# Experiments:
# [1] = system: MAC (strain Mycobacterium avium 9141); test: MAC infection of human monocyte-derived macrophages, colony counts; type: cell-based; conditions: FIG. 1
# [2] = system: MAC (strain Mycobacterium avium 9141); test: MAC infection of human monocyte-derived macrophages, direct observation and counting of infected cells; type: cell-based; conditions: AAT 5.0 mg/ml-exposed MDM, control MDM (no AAT) 17%
# interleukin-1 beta = test: Stimulated interleukin-1 beta production in whole human blood; type: cell-based; conditions: whole human blood diluted 1:4, heat-killed Staphylococcus epidermidis 1:1000, 24 hrs, all concentrations tested, FIG. 5
# Method: Design: Venipuncture was performed on 3 healthy volunteers using a 21-gauge needle, and the venous blood was aspirated into a heparinized tube. Blood was then aliquoted into 6 milliliter polypropylene tubes and diluted 1:4 with sterile RPMI tissue culture medium alone (Control), diluted 1:4 in medium containing heat-killed Staphylococcus epidermidis at a final concentration of 1:1000 as a stimulus (Staph), or into tubes containing Staphylococcus epidermidis and alpha-1-antitrypsin (AAT, Aralast® from Baxter). All cultures were then incubated ×24 hrs at 37° C./5% CO2). Following incubation, the samples were centrifuged ×1,500 g, and the supernatants collected. Supernatants were assayed for interleukin-1 beta concentration using a validated electrochemiluminescence apparatus that quantifies cytokine proteins.
# TB (strain H37RV) [3] = type: cell-based, m. tuberculosis; conditions: AAT 5.0 mg/ml-exposed MDM; control MDM (no AAT) 20% and 17%
# TB (strain H37RV) [4] = type: cell-based, m. tuberculosis
Compound,effect on MAC infection of MDM [1],percent of cells infected [2],Staph-stimulated interleukin-1 beta production (interleukin-1 beta),percent of cells infected with m. tuberculosis (TB (strain H37RV) [3]),inhibition of infection of MDM with MAC (mean effect) ([1]; 4 separate experiments),"TB counts per ml (TB (strain H37RV) [4]; AAT-exposed MDM cultures, control MDM cultures 1.6×10^5 per ml)",inhibitory effect on cell-associated TB counts (TB (strain H37RV) [4]; AAT-exposed versus control MDM cultures)
"CC(C)[C@H](NC(=O)[C@@H]1CCCN1C(=O)[C@H](C)NC(=O)[C@H](C)N)C(=O)CCl [AAT mimic, ala-ala-pro-val-chloromethyl ketone, reference compound] (H-AAPV-CH2Cl)",confirm the AAT data,–,–,–,–,–,–
α1-antitrypsin [AAT],–,10%,significantly inhibited,4% and 6%,approximately 55%,0.57×10^5 per ml,64%
